≈ marks a conversion by molar mass, not a printed value. Read-outs that look alike come from different tables or passages of the source.
Columns and labels:
Experiment in all cases: liquid turbidimetric microtiter MIC determination in broth media
Assay type in all cases: cell-based
[1] = system: Streptococcus pyogenes MB 2874
From the text: (§1) The antibacterial activities of the compounds of Examples 8 and 10 against a panel of aerobic Gram positive and negative bacteria is shown in the following Table. The assay employs a liquid turbidimetric microtiter method for the determination of the minimum inhibitory concentration (MIC) in broth media. […] The MIC is generally not an absolute value but rather a concentration range that falls within a two-fold dilution limit. Generally twelve two-fold dilutions of the test compound are employed with the initial concentration set at 128 mcg/ml.

[2] = system: Escherichia coli MB 2884
From the text: as §1

[3] = system: Enterococcus faecalis MB 5407
From the text: as §1

[4] = system: Haemophilus influenzae AT 43163
From the text: as §1

[5] = system: Klebsiella pneumoniae MB 4005
From the text: as §1

[6] = system: Staphylococcus aureus MB 2865
From the text: as §1

[7] = system: Haemophilus influenzae MB 5363
From the text: as §1

[8] = system: Streptococcus pneumoniae CL 2883
From the text: as §1

[9] = system: Staphylococcus epidermidis MB 5414
From the text: as §1

[10] = system: Enterobacter cloacae CL 4298
From the text: as §1

[11] = system: Pseudomonas stutzeri MB 1231; conditions: Stutzerimonas stutzeri, MB1231, Table I
From the text: as §1

[12] = system: Enterococcus faecium MB 5416; conditions: MB5416, Table I
From the text: as §1

[13] = system: Steptococcus viridans CL 2943; conditions: Table I
From the text: as §1

[14] = system: Staphylococcus haemolyticus MB 5412; conditions: MB5412, Table I
From the text: as §1

[15] = system: Streptococcus agalactiae CL 1343; conditions: CL1343, Table I
From the text: as §1

[16] = system: Streptococcus pyogenes MB 54061; conditions: MB54061, Table I
From the text: as §1

[17] = system: Escherichia coli MB 4926; conditions: MB4926, Table I
From the text: as §1

[18] = MB2884, Table II, MIC, read-out: In vitro Activity
[19] = MB2874, Table I, Streptococcus pyogenes MB 2874, read-out: MIC Values
[20] = MB2884, Table I, read-out: MIC Values
[21] = MB5407, Table I, Enterococcus faecalis MB 5407, read-out: MIC Values
[22] = MB4005, Table I, Klebsiella pneumoniae MB 4005, read-out: MIC Values
[23] = MB2865, Table I, Staphylococcus aureus MB 2865, read-out: MIC Values
[24] = CL2883, Table I, Streptococcus pneumoniae CL 2883, read-out: MIC Values
[25] = MB5414, Table I, Staphylococcus epidermidis MB 5414, read-out: MIC Values
[26] = MB2874, Table II, MIC, Streptococcus pyogenes MB 2874, read-out: In vitro Activity
[27] = MB5407, Table II, MIC, Enterococcus faecalis MB 5407, read-out: In vitro Activity
[28] = AT43163, Table II, MIC, Haemophilus influenzae AT 43163, read-out: In vitro Activity
[29] = MB4005, Table II, MIC, Klebsiella pneumoniae MB 4005, read-out: In vitro Activity
[30] = MB2865, Table II, MIC, Staphylococcus aureus MB 2865, read-out: In vitro Activity
[31] = MB5363, Table II, MIC, Haemophilus influenzae MB 5363, read-out: In vitro Activity
[32] = CL2883, Table II, MIC, Streptococcus pneumoniae CL 2883, read-out: In vitro Activity
[33] = MB5414, Table II, MIC, Staphylococcus epidermidis MB 5414, read-out: In vitro Activity
[34] = CL4298, Table II, MIC, Enterobacter cloacae CL 4298, read-out: In vitro Activity

## 4''-epi-9-deoxo-8a-aza-8a-methyl-8a-homoerythromycin A [Example 15]
[1]; Table II, MIC, Streptococcus pyogenes MB 2874
  In vitro Activity: ≦0.06 mcg/ml
[2]; Table II, MIC
  In vitro Activity: 1 µg/mL
[3]; Table II, MIC, Enterococcus faecalis MB 5407
  In vitro Activity: 1 µg/mL
[4]; Table II, MIC, Haemophilus influenzae AT 43163
  In vitro Activity: 0.5 µg/mL
[5]; Table II, MIC, Klebsiella pneumoniae MB 4005
  In vitro Activity: 1 µg/mL
[6]; Table II, MIC, Staphylococcus aureus MB 2865
  In vitro Activity: 0.5 µg/mL
[7]; Table II, MIC, Haemophilus influenzae MB 5363
  In vitro Activity: 0.5 µg/mL
[8]; Table II, MIC, Streptococcus pneumoniae CL 2883
  In vitro Activity: ≦0.06 mcg/ml
[9]; Table II, MIC, Staphylococcus epidermidis MB 5414
  In vitro Activity: 0.25 µg/mL
[10]; Table II, MIC, Enterobacter cloacae CL 4298
  In vitro Activity: 0.5 µg/mL

## CC[C@H]1OC(=O)[C@H](C)[C@@H](O[C@H]2C[C@@](C)(OC)[C@@H](O)[C@H](C)O2)[C@H](C)[C@@H](O[C@@H]2O[C@H](C)C[C@H](N(C)C)[C@H]2O)[C@](C)(O)C[C@@H](C)C(=O)[C@H](C)[C@@H](O)[C@]1(C)O [Erythromycin A, erythromycin A]
[1]; Streptococcus pyogenes, MB2874, read-out: In vitro Activity
  MIC: ≤ 0.06 µg/mL
[2]; [18]
  MIC: 16 µg/mL (≈ 21.8 µM)
[3]; Enterococcus faecalis, MB5407, read-out: In vitro Activity
  MIC: 1 µg/mL (≈ 1.36 µM)
[4]; Haemophilus influenzae, AT43163, read-out: In vitro Activity
  MIC: 2 µg/mL (≈ 2.73 µM)
[5]; Klebsiella pneumoniae, MB4005, read-out: In vitro Activity
  MIC: 32 µg/mL (≈ 43.6 µM)
[6]; Staphylococcus aureus, MB2865, read-out: In vitro Activity
  MIC: 0.12 µg/mL (≈ 0.164 µM)
[7]; Haemophilus influenzae, MB5363, read-out: In vitro Activity
  MIC: 2 µg/mL (≈ 2.73 µM)
[8]; Streptococcus pneumoniae, CL2883, read-out: In vitro Activity
  MIC: ≤ 0.06 µg/mL
[9]; Staphylococcus epidermidis, MB5414, read-out: In vitro Activity
  MIC: 0.12 µg/mL (≈ 0.164 µM)
[10]; Enterobacter cloacae, CL4298, read-out: In vitro Activity
  MIC: 16 µg/mL (≈ 21.8 µM)

## CC[C@H]1OC(=O)[C@H](C)[C@@H](O[C@H]2C[C@@](C)(OC)[C@@H](O)[C@H](C)O2)[C@H](C)[C@@H](O[C@@H]2O[C@H](C)C[C@H](N(C)C)[C@H]2O)[C@](C)(O)C[C@@H](C)NC[C@H](C)[C@@H](O)[C@]1(C)O [Example 9, 9-Deoxo-8a-aza-8a-homoerythromycin A]
[11]
  MIC: ≤ 0.06 µg/mL
[12]
  MIC: 0.25 µg/mL (≈ 0.34 µM)
[1]; [19]
  MIC: ≤ 0.06 µg/mL
[2]; [20]
  MIC: 4 µg/mL (≈ 5.44 µM)
[3]; [21]
  MIC: 8 µg/mL (≈ 10.9 µM)
[13]
  MIC: 8 µg/mL (≈ 10.9 µM)
[14]
  MIC: 0.5 µg/mL (≈ 0.68 µM)
[15]
  MIC: ≤ 0.06 µg/mL
[5]; [22]
  MIC: 8 µg/mL (≈ 10.9 µM)
[16]
  MIC: 128 µg/mL (≈ 174 µM)
[6]; [23]
  MIC: 0.5 µg/mL (≈ 0.68 µM)
[8]; [24]
  MIC: ≤ 0.06 µg/mL
[9]; [25]
  MIC: 1 µg/mL (≈ 1.36 µM)
[17]
  MIC: 2 µg/mL (≈ 2.72 µM)

## CC[C@H]1OC(=O)[C@H](C)[C@@H](O[C@H]2C[C@@](C)(OC)[C@@H](O)[C@H](C)O2)[C@H](C)[C@@H](O[C@@H]2O[C@H](C)C[C@H](N(C)C)[C@H]2O)[C@](C)(O)C[C@@H](C)N(C)C[C@H](C)[C@@H](O)[C@]1(C)O [Example 10, 9-Deoxo-8a-aza-8a-methyl-8a-homoerythromycin A]
[11]
  MIC: ≤ 0.06 µg/mL
[12]
  MIC: 0.25 µg/mL (≈ 0.334 µM)
[1]; [19]
  MIC: ≤ 0.06 µg/mL
[2]; [20]
  MIC: 1 µg/mL (≈ 1.34 µM)
[3]; [21]
  MIC: 4 µg/mL (≈ 5.34 µM)
[13]
  MIC: 1 µg/mL (≈ 1.34 µM)
[14]
  MIC: 0.5 µg/mL (≈ 0.668 µM)
[15]
  MIC: ≤ 0.06 µg/mL
[5]; [22]
  MIC: 2 µg/mL (≈ 2.67 µM)
[16]
  MIC: 128 µg/mL (≈ 171 µM)
[6]; [23]
  MIC: 0.5 µg/mL (≈ 0.668 µM)
[8]; [24]
  MIC: ≤ 0.06 µg/mL
[9]; [25]
  MIC: 1 µg/mL (≈ 1.34 µM)
[17]
  MIC: 0.06 µg/mL (≈ 0.0801 µM)

## CC[C@H]1OC(=O)[C@H](C)[C@@H](O[C@H]2C[C@@](C)(OC)C(N)[C@H](C)O2)[C@H](C)[C@@H](O[C@@H]2O[C@H](C)C[C@H](N(C)C)[C@H]2O)[C@](C)(O)C[C@@H](C)N(C)C[C@H](C)[C@@H](O)[C@]1(C)O (stereo partly drawn) [Example 17, 4''-Deoxy-4''-amino-9-deoxo-8a-aza-8a-methyl-8a-homoerythromycin A]
[1]; [26]
  MIC: ≤ 0.06 µg/mL
[2]; [18]
  MIC: 0.12 µg/mL (≈ 0.16 µM)
[3]; [27]
  MIC: 4 µg/mL (≈ 5.35 µM)
[4]; [28]
  MIC: 0.25 µg/mL (≈ 0.334 µM)
[5]; [29]
  MIC: 0.12 µg/mL (≈ 0.16 µM)
[6]; [30]
  MIC: 1 µg/mL (≈ 1.34 µM)
[7]; [31]
  MIC: 0.5 µg/mL (≈ 0.668 µM)
[8]; [32]
  MIC: ≤ 0.06 µg/mL
[9]; [33]
  MIC: 0.5 µg/mL (≈ 0.668 µM)
[10]; [34]
  MIC: ≤ 0.06 µg/mL

## CC[C@H]1OC(=O)[C@H](C)[C@@H](O[C@H]2C[C@@](C)(OC)[C@@H](N)[C@H](C)O2)[C@H](C)[C@@H](O[C@@H]2O[C@H](C)C[C@H](N(C)C)[C@H]2O)[C@](C)(O)C[C@@H](C)N(C)C[C@H](C)[C@@H](O)[C@]1(C)O [Example 19, 4''-Deoxy-4''-(S) - amino-9-deoxo-8a-aza-8a-methyl-8a-homoerythromycin A]
[1]; [26]
  MIC: ≤ 0.06 µg/mL
[2]; [18]
  MIC: 0.12 µg/mL (≈ 0.16 µM)
[3]; [27]
  MIC: 2 µg/mL (≈ 2.67 µM)
[4]; [28]
  MIC: 0.25 µg/mL (≈ 0.334 µM)
[5]; [29]
  MIC: 0.12 µg/mL (≈ 0.16 µM)
[6]; [30]
  MIC: 1 µg/mL (≈ 1.34 µM)
[7]; [31]
  MIC: 0.25 µg/mL (≈ 0.334 µM)
[8]; [32]
  MIC: ≤ 0.06 µg/mL
[9]; [33]
  MIC: 0.51 µg/mL (≈ 0.682 µM)
[10]; [34]
  MIC: ≤ 0.06 µg/mL

## CC[C@H]1OC(=O)[C@H](C)[C@@H](O[C@H]2C[C@@](C)(OC)[C@H](N)[C@H](C)O2)[C@H](C)[C@@H](O[C@@H]2O[C@H](C)C[C@H](N(C)C)[C@H]2O)[C@](C)(O)C[C@@H](C)N(C)C[C@H](C)[C@@H](O)[C@]1(C)O [Example 20, 4''-Deoxy-4''-(R) - amino-9-deoxo-8a-aza-8a-methyl-8a-homoerythromycin A]
[1]; [26]
  MIC: ≤ 0.06 µg/mL
[2]; [18]
  MIC: 0.25 µg/mL (≈ 0.334 µM)
[3]; [27]
  MIC: 2 µg/mL (≈ 2.67 µM)
[4]; [28]
  MIC: 0.25 µg/mL (≈ 0.334 µM)
[5]; [29]
  MIC: 0.25 µg/mL (≈ 0.334 µM)
[6]; [30]
  MIC: 1 µg/mL (≈ 1.34 µM)
[7]; [31]
  MIC: 0.5 µg/mL (≈ 0.668 µM)
[8]; [32]
  MIC: ≤ 0.06 µg/mL
[9]; [33]
  MIC: 0.5 µg/mL (≈ 0.668 µM)
[10]; [34]
  MIC: 0.12 µg/mL (≈ 0.16 µM)
